Laboratory results published in article PMC6979384, “Characterization of the plant homeodomain (PHD) reader family for their histone tail interactions” (Epigenetics & Chromatin, 2020).

Experiments:
Assay in all cases: Histone peptide microarray
Assay type in all cases: binding, human
Conditions in all cases: sheet "Array Heatmap"
[1] = system: AIRE (PP)
Outline: (§1)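 Histone peptide library (293 synthetic peptides, single/combinatorial PTMs) arrayed and probed with 0.5 μM purified GST-PHD domain; optimized protocol; quadruplicate mean and SD reported.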

[2] = system: BAZ2B
Outline: as §1

[3] = system: BPTF (PB)
Outline: as §1

[4] = system: CHD4 (PPCC)
Outline: as §1

[5] = system: CHD5 (PCC)
Outline: as §1

[6] = system: CHD5 (PPCC)
Outline: as §1

[7] = system: DIDO1
Outline: as §1

[8] = system: DPF2 (PPC2W2)
Outline: as §1

[9] = system: ING1
Outline: as §1

[10] = system: ING2
Outline: as §1

[11] = system: ING3
Outline: as §1

[12] = system: ING4
Outline: as §1

[13] = system: ING5
Outline: as §1

[14] = system: KDM4C (TTP)
Outline: as §1

[15] = system: KDM5A (1)
Outline: as §1

[16] = system: KDM5A (3)
Outline: as §1

[17] = system: KDM5B (1)
Outline: as §1

[18] = system: KDM5B (3)
Outline: as §1

[19] = system: KDM7A
Outline: as §1

[20] = system: MLL5
Outline: as §1

[21] = system: MORC3 (CW)
Outline: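 GST-tagged PHD readers, 0.5 μM, probed on a microarray of 293 synthetic histone peptides carrying single or combinatorial PTMs (optimized Petell protocol). Signals are averaged over 4 replicates and expressed as relative binding.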

[22] = system: PHF13
Outline: as §1

[23] = system: PHF21A
Outline: as §1

[24] = system: PHF23
Outline: as §1

[25] = system: PHF2
Outline: as §1

[26] = system: PHF8
Outline: as §1

[27] = system: PHRF1 (RP)
Outline: as §1

[28] = system: RAG2
Outline: as §1

[29] = system: SP140L
Outline: as §1

[30] = system: TAF3
Outline: as §1

[31] = system: TRIM66 (PB)
Outline: as §1

[32] = GST-tagged AIRE (PP), arrays performed twice, total replicate number n = 4
[33] = GST-tagged BAZ2B, arrays performed twice, total replicate number n = 4
[34] = GST-tagged BPTF (PB), arrays performed twice, total replicate number n = 4
[35] = GST-tagged CHD4 (PPCC), arrays performed twice, total replicate number n = 4
[36] = GST-tagged CHD5 (PCC), arrays performed twice, total replicate number n = 4
[37] = GST-tagged CHD5 (PPCC), arrays performed twice, total replicate number n = 4
[38] = GST-tagged DIDO1, arrays performed twice, total replicate number n = 4
[39] = GST-tagged DPF2 (PPC2W2), arrays performed twice, total replicate number n = 4
[40] = GST-tagged ING1, arrays performed twice, total replicate number n = 4
[41] = GST-tagged ING2, arrays performed twice, total replicate number n = 4
[42] = GST-tagged ING3, arrays performed twice, total replicate number n = 4
[43] = GST-tagged ING4, arrays performed twice, total replicate number n = 4
[44] = GST-tagged ING5, arrays performed twice, total replicate number n = 4
[45] = GST-tagged KDM4C (TTP), arrays performed twice, total replicate number n = 4
[46] = GST-tagged KDM5A (1), arrays performed twice, total replicate number n = 4
[47] = GST-tagged KDM5A (3), arrays performed twice, total replicate number n = 4
[48] = GST-tagged KDM5B (1), arrays performed twice, total replicate number n = 4
[49] = GST-tagged KDM5B (3), arrays performed twice, total replicate number n = 4
[50] = GST-tagged KDM7A, arrays performed twice, total replicate number n = 4
[51] = GST-tagged MLL5, arrays performed twice, total replicate number n = 4
[52] = GST-tagged MORC3 (CW), arrays performed twice, total replicate number n = 4
[53] = GST-tagged PHF13, arrays performed twice, total replicate number n = 4
[54] = GST-tagged PHF21A, arrays performed twice, total replicate number n = 4
[55] = GST-tagged PHF23, arrays performed twice, total replicate number n = 4
[56] = GST-tagged PHF2, arrays performed twice, total replicate number n = 4
[57] = GST-tagged PHF8, arrays performed twice, total replicate number n = 4
[58] = GST-tagged PHRF1 (RP), arrays performed twice, total replicate number n = 4
[59] = GST-tagged RAG2, arrays performed twice, total replicate number n = 4
[60] = GST-tagged SP140L, arrays performed twice, total replicate number n = 4
[61] = GST-tagged TAF3, arrays performed twice, total replicate number n = 4
[62] = GST-tagged TRIM66 (PB), arrays performed twice, total replicate number n = 4
[63] = GST-tagged reader, histone peptide array, total n = 4

## H3R8me2s + K9me2: H3 1-20
[1]; [32]
  Array Heatmap signal, AIRE (PP): 0.5603
[2]; [33]
  Array Heatmap signal, BAZ2B: 0.5059
[3]; [34]
  Array Heatmap signal, BPTF (PB): 0.3651
[4]; [35]
  Array Heatmap signal, CHD4 (PPCC): 0.5754
[5]; [36]
  Array Heatmap signal, CHD5 (PCC): 0.7949
[6]; [37]
  Array Heatmap signal, CHD5 (PPCC): 0.5952
[7]; [38]
  Array Heatmap signal, DIDO1: 0.6168
[8]; [39]
  Array Heatmap signal, DPF2 (PPC2W2): 0.6724
[9]; [40]
  Array Heatmap signal, ING1: 0.5182
[10]; [41]
  Array Heatmap signal, ING2: 0.6129
[11]; [42]
  Array Heatmap signal, ING3: 0.4823
[12]; [43]
  Array Heatmap signal, ING4: 0.4841
[13]; [44]
  Array Heatmap signal, ING5: 0.3835
[14]; [45]
  Array Heatmap signal, KDM4C (TTP): 0.5379
[15]; [46]
  Array Heatmap signal, KDM5A (1): 0.5094
[16]; [47]
  Array Heatmap signal, KDM5A (3): 0.4844
[17]; [48]
  Array Heatmap signal, KDM5B (1): 0.6818
[18]; [49]
  Array Heatmap signal, KDM5B (3): 0.5187
[19]; [50]
  Array Heatmap signal, KDM7A: 0.4179
[20]; [51]
  Array Heatmap signal, MLL5: 0.5188
[21]; [52]
  Array Heatmap signal, MORC3 (CW): 0.398
[22]; [53]
  Array Heatmap signal, PHF13: 0.6345
[23]; [54]
  Array Heatmap signal, PHF21A: 0.4814
[24]; [55]
  Array Heatmap signal, PHF23: 0.5163
[25]; [56]
  Array Heatmap signal, PHF2: 0.4235
[26]; [57]
  Array Heatmap signal, PHF8: 0.3655
[27]; [58]
  Array Heatmap signal, PHRF1 (RP): 0.5504
[28]; [59]
  Array Heatmap signal, RAG2: 0.2593
[29]; [60]
  Array Heatmap signal, SP140L: 0.3733
[30]; [61]
  Array Heatmap signal, TAF3: 0.2872
[31]; [62]
  Array Heatmap signal, TRIM66 (PB): 0.5924

## H3R8me2s + K9me3: H3 1-20
[1]; [32]
  Array Heatmap signal, AIRE (PP): 0.6619
[2]; [33]
  Array Heatmap signal, BAZ2B: 0.5401
[3]; [34]
  Array Heatmap signal, BPTF (PB): 0.4039
[4]; [35]
  Array Heatmap signal, CHD4 (PPCC): 0.6275
[5]; [36]
  Array Heatmap signal, CHD5 (PCC): 0.8709
[6]; [37]
  Array Heatmap signal, CHD5 (PPCC): 0.6469
[7]; [38]
  Array Heatmap signal, DIDO1: 0.7617
[8]; [39]
  Array Heatmap signal, DPF2 (PPC2W2): 0.784
[9]; [40]
  Array Heatmap signal, ING1: 0.6071
[10]; [41]
  Array Heatmap signal, ING2: 0.6159
[11]; [42]
  Array Heatmap signal, ING3: 0.5417
[12]; [43]
  Array Heatmap signal, ING4: 0.5372
[13]; [44]
  Array Heatmap signal, ING5: 0.4272
[14]; [45]
  Array Heatmap signal, KDM4C (TTP): 0.5668
[15]; [46]
  Array Heatmap signal, KDM5A (1): 0.5383
[16]; [47]
  Array Heatmap signal, KDM5A (3): 0.5266
[17]; [48]
  Array Heatmap signal, KDM5B (1): 0.6697
[18]; [49]
  Array Heatmap signal, KDM5B (3): 0.5509
[19]; [50]
  Array Heatmap signal, KDM7A: 0.3933
[20]; [51]
  Array Heatmap signal, MLL5: 0.5932
[21]; [52]
  Array Heatmap signal, MORC3 (CW): 0.4796
[22]; [53]
  Array Heatmap signal, PHF13: 0.7048
[23]; [54]
  Array Heatmap signal, PHF21A: 0.5424
[24]; [55]
  Array Heatmap signal, PHF23: 0.594
[25]; [56]
  Array Heatmap signal, PHF2: 0.5404
[26]; [57]
  Array Heatmap signal, PHF8: 0.4276
[27]; [58]
  Array Heatmap signal, PHRF1 (RP): 0.5937
[28]; [59]
  Array Heatmap signal, RAG2: 0.2769
[29]; [60]
  Array Heatmap signal, SP140L: 0.3989
[30]; [61]
  Array Heatmap signal, TAF3: 0.3134
[31]; [62]
  Array Heatmap signal, TRIM66 (PB): 0.7482

## H3R17me1: H3 1-20 [Peptide H3R17me1]
[1]; [63]
  Array Heatmap signal, AIRE (PP): 0.4567
[2]; [63]
  Array Heatmap signal, BAZ2B: 0.4823
[3]; [63]
  Array Heatmap signal, BPTF (PB): 0.345
[4]; [63]
  Array Heatmap signal, CHD4 (PPCC): 0.598
[5]; [63]
  Array Heatmap signal, CHD5 (PCC): 0.834
[6]; [63]
  Array Heatmap signal, CHD5 (PPCC): 0.5588
[7]; [63]
  Array Heatmap signal, DIDO1: 0.721
[8]; [63]
  Array Heatmap signal, DPF2 (PPC2W2): 0.7016
[9]; [63]
  Array Heatmap signal, ING1: 0.5598
[10]; [63]
  Array Heatmap signal, ING2: 0.6036
[11]; [63]
  Array Heatmap signal, ING3: 0.4855
[12]; [63]
  Array Heatmap signal, ING4: 0.4637
[13]; [63]
  Array Heatmap signal, ING5: 0.3567
[14]; [63]
  Array Heatmap signal, KDM4C (TTP): 0.4745
[15]; [63]
  Array Heatmap signal, KDM5A (1): 0.4728
[16]; [63]
  Array Heatmap signal, KDM5A (3): 0.5587
[17]; [63]
  Array Heatmap signal, KDM5B (1): 0.6928
[18]; [63]
  Array Heatmap signal, KDM5B (3): 0.5296
[19]; [63]
  Array Heatmap signal, KDM7A: 0.3476
[20]; [63]
  Array Heatmap signal, MLL5: 0.5956
[21]; [63]
  Array Heatmap signal, MORC3 (CW): 0.4904
[22]; [63]
  Array Heatmap signal, PHF13: 0.6124
[23]; [63]
  Array Heatmap signal, PHF21A: 0.4738
[24]; [63]
  Array Heatmap signal, PHF23: 0.5635
[25]; [63]
  Array Heatmap signal, PHF2: 0.5204
[26]; [63]
  Array Heatmap signal, PHF8: 0.3543
[27]; [63]
  Array Heatmap signal, PHRF1 (RP): 0.8251
[28]; [63]
  Array Heatmap signal, RAG2: 0.268
[29]; [63]
  Array Heatmap signal, SP140L: 0.359
[30]; [63]
  Array Heatmap signal, TAF3: 0.2696
[31]; [63]
  Array Heatmap signal, TRIM66 (PB): 0.643
